# Assay results taken from US20060100224A1, “Piperidine ouracil used as a medicament for treating bacterial infections” (priority 2002, published 2006).
# Biological target: T1, Pol III from S. aureus (PolC) (Staphylococcus aureus, UniProt P0C1P9)
# T1 construct: His tag (pET15b) (N); made in house; host or cells: E. coli BL21(DE3)
# T1 sequence (P0C1P9 1-1435): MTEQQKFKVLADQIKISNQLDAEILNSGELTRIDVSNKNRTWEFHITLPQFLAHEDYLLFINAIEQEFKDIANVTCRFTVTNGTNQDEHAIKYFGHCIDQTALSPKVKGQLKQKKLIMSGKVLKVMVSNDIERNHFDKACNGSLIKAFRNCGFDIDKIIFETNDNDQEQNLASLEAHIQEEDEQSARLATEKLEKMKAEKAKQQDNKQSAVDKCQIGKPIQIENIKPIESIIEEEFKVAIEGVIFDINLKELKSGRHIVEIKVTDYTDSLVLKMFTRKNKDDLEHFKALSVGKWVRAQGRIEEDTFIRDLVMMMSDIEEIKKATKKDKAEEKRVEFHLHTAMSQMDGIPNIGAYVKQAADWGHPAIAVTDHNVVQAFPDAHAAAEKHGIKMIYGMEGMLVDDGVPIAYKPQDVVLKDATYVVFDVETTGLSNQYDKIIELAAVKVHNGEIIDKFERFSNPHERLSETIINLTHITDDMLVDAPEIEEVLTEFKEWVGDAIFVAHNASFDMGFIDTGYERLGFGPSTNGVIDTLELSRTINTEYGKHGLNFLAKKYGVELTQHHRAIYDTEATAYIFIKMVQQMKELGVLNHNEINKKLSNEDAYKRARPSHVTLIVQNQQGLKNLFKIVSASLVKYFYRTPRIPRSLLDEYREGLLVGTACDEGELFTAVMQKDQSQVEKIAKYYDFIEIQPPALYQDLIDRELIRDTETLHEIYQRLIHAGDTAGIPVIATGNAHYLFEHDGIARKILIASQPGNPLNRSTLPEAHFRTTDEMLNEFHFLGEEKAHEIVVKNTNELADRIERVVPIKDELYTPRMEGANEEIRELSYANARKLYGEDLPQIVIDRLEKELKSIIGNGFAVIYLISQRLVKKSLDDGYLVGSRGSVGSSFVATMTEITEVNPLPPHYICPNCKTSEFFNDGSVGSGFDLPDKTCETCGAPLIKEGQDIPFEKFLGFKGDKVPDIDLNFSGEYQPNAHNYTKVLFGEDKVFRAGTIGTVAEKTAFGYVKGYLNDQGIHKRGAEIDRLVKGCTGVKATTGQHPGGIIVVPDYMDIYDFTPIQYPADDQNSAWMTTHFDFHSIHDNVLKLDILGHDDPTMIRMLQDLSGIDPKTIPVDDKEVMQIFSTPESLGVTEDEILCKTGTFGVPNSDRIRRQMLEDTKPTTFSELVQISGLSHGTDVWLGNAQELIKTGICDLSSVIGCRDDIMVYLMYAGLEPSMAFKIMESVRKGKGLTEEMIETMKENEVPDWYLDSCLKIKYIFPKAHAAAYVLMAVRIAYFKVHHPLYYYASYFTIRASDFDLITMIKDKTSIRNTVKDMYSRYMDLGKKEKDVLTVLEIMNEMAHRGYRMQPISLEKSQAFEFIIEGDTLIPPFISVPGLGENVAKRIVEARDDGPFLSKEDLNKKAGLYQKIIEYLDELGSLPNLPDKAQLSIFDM
# Experiment: Determination of the IC50 for Polymerase III (PolC, luciferase-coupled pyrophosphate detection)
# Assay type: biochemical
# Conditions: purified PolC ~2 nM, 30° C., 30 min, activated calf thymus DNA
# Description: Cloning, Expression and Purification of Pol III from S. aureus
# To clone polC with an N-terminal His tag, the structural gene polC is amplified from S. aureus genomic DNA with the aid of PCR. The primers SAPol 31 5′-[…]-3′ and SAPolrev 5′-[…]-3′ are used to introduce the NdeI and BamHI restriction cleavage sites respectively in front of and behind the amplified gene. After the PCR product which is 4300 bp in size has been digested with NdeI and BamHI, it is ligated into the vector pET15b (Novagen, USA), which has likewise been digested with NdeI and BamHI, and transformed into E. coli XL-1 Blue.
# After transformation into E. coli BL21(DE3), the cells are cultivated for expression of PolC at 30° C. in LB medium with 100 μg/ml ampicillin until the OD595 nm is 0.5, cooled to 18° C. and, after addition of 1 mM IPTG, incubated for a further 20 hours. The cells are harvested by centrifugation, washed once in PBS with 1 mM PMSF and taken up in 50 mM NaH2PO4 pH 8.0, 10 mM imidazole, 2 mM β-mercaptoethanol, 1 mM PMSF, 20% glycerol. The cells are disrupted using a French press at 12,000 psi, the cell detritus is removed by centrifugation ([…]×g, 120 min, 4° C.) and the supernatant is stirred with an appropriate amount of Ni-NTA-agarose (from Quiagen, Germany) at 4° C. for 1 hour. After the gel matrix has been packed into a column it is washed with 50 mM NaH2PO4 pH 8.0, 2 mM β-mercaptoethanol, 20 mM imidazole, 10% glycerol, and the purified protein is then eluted with the same buffer containing 100 mM imidazole. The purified protein is mixed with 50% glycerol and stored at −20° C.
# Determination of the IC50 for Polymerase III
# The activity of PolC is measured in an enzymatically coupled reaction, with the pyrophosphate formed during the polymerization being converted with the aid of ATP sulfurylase into ATP, which is detected using firefly luciferase. The reaction mixture contains, in a final volume of 50 μl, 50 mM Tris/Cl pH 7.5; 5 mM DTT, 10 mM MgCl2, 30 mM NaCl, 0.1 mg/ml BSA, 10% glycerol, 20 μM each dATP, dTTP, dCTP, 2U/ml activated calf thymus DNA (from Worthington, USA), 20 μM APS and 0.06 mM luciferin. The reaction is started by adding purified PolC in a final concentration of ˜2 nM and is incubated at 30° C. for 30 min. The amount of pyrophosphate formed is then converted into ATP by adding ATP sulfurylase (Sigma, USA) in a final concentration of 5 nM and incubating at 30° C. for 15 min. After addition of 0.2 nM firefly luciferase, the luminescence is measured in a luminometer for 60 s. The IC50 is reported as the concentration of an inhibitor which leads to 50% inhibition of the enzymic activity of PolC.
row,IC50 [nM],SMILES
1,220,O=C(c1cccnc1)N1CCCC(Cn2c(=O)cc(Nc3ccc4c(c3)CCC4)[nH]c2=O)C1 (stereo not drawn) [Example 26]
2,340,O=C(c1nc[nH]n1)N1CCCC(Cn2c(=O)cc(Nc3ccc4c(c3)CCC4)[nH]c2=O)C1 (stereo not drawn) [Example 17]
3,330,Cc1ccoc1C(=O)N1CCCC(Cn2c(=O)cc(Nc3ccc4c(c3)CCC4)[nH]c2=O)C1 (stereo not drawn) [Example 39]

# Continued, molecule first:
row,SMILES,IC50 [nM]
1,CCc1cc(Nc2cc(=O)n(CC3CCN(C(=O)c4ccno4)CC3)c(=O)[nH]2)ccc1C [Example 9],140
2,O=C(c1csnn1)N1CCC(Cn2c(=O)cc(Nc3ccc4c(c3)CCC4)[nH]c2=O)CC1 [Example 13],90
3,Cc1nnsc1-c1nc(C(=O)N2CCC(Cn3c(=O)cc(Nc4ccc5c(c4)CCC5)[nH]c3=O)CC2)cs1 [Example 21],110
